Reference: patent publication US20090298824A1, “Organic compounds” (priority 2004, published 2009)

Tested on: neutrophils
Assay: Neutrophil chemotaxis assay
Assay type: cell-based
Conditions: 1.5 h; inhibition of neutrophil chemotaxis; chemoattractants 0.1-5 nM; 90 minutes migration at 37° C.; read-out: IC50 values in the above assay
Protocol: The in vitro inhibitory properties of these compounds are determined in the neutrophil chemotaxis assay. Assays were performed in a 96-well plate format according to previously published method (Frevert C W, et al., J Immunolog. Methods, 1998, 213, 41). 96-well chemotaxis chambers 5 μm were obtained from Neuro Probe, all cell buffers were obtained from Invitrogen Paisley, UK, dextran-T500 and Ficoll-Paque Plus™ density gradient centrifugation media were purchased from Pharmacia Biotech Buckinghamshire, UK. Calcein-AM dye was obtained from Molecular Probes. Neutrophils were isolated as previously described (Haslett, C., et al. Am J Path., 1985, 119:101). Citrated whole blood was mixed with 4% (w/v) dextran-T500 and allowed to stand on ice for 30 minutes to remove erythrocytes. Granulocytes (PMN) were separated from peripheral blood mononuclear cells by layering 15 ml of cell suspension onto 15 ml Ficoll-Paque PLUS density gradient and centrifuged at 250×g for 25 minutes. […] The labelled cells were washed with RPMI without phenol red+0.1% bovine serum albumin, prior to use the cells were counted and adjusted to a final concentration of 5×10^6 cells/ml. […] At the end of the incubation period, migrated cells were quantified using a multi-well fluorescent plate reader (Fluoroskan II™, Labsystems) at 485 nm excitation and 538 nm emission. […]

- IC50: 322 nM
Compound: N#Cc1cc(O)c2[nH]c(Nc3cccc(Cl)c3Cl)nc2c1 [Example 2, 2-(2,3-Dichloro-phenylamino)-7-hydroxy-1H-benzoimidazole-5-carbonitrile]
